Patent publication US20050129618A1, “Drugs for ameliorating itch, rough skin or hypersensitive skin or for whitening via inhibition of the production and release of stem cell factor” (Shiseido Co., ltd., priority 2001, published 2005)

System: SCF expression on keratinocyte membranes
Experiment: Accelerated SCF expression on keratinocyte membranes by different stimulations
Type: cell-based, human
Conditions: chemical stimulation, culturing for 24 hours; FIG. 4
Experimental: After plating 1.5 million keratinocytes on a 10 cm plate and culturing for 72 hours, the cells were stimulated by one of the following: (1) exchanging the medium with PBS(−), irradiating the culture with UVB at 20 mJ/cm^2 and then immediately exchanging the PBS(−) with medium, (2) adding forskolin, or (3) adding theophyllin. After culturing for 24 hours, the cells were collected and then dispersed in 200 μl of 50 mM phosphate buffer solution (pH 7.8)+protease inhibitor solution, and the cells were then disrupted with an ultrasonic disrupter for five 30-second disruption cycles at 4° C. After centrifugation at 10,000 g for 20 minutes at 4° C., the supernatant was further centrifuged at 100,000 g for 60 minutes at 4° C. The obtained pellet was dissolved in 100 μl of 25 mM phosphate buffer solution (pH 6.8)+0.1% Triton-X100 solution and a membrane fraction protein extract was obtained. The protein content of the solution was measured by an established method, and then the SCF amount was assayed to obtain an SCF/protein value.

SMILES: Cn1c(=O)c2[nH]cnc2n(C)c1=O [theophyllin]
- expression of SCF in the cells or on the cell membranes (SCF/protein value of membrane fraction): accelerated expression of SCF
